The melting point is the temperature of the solid-liquid transition. One may read the pIC50 as −log10 of the IC50, conventionally taken in molar units. Lower therefore signals a large IC50. What is called inhibition is how much of the control response was suppressed.

The record followed here is patent publication US9309261B2, “Spirooxindole derivative and process for producing the same” (OKINAWA INSTITUTE OF SCIENCE AND TECHNOLOGY SCHOOL …, priority 2012, dated 2016).

Data set [1] is described as follows: Cytotoxicity: K562 cell growth inhibition (Cell Counting Kit-8, WST-8). Type of data set: cell-based. Conditions: human, K562 cells. On the procedure:
K562 cells (American Type Culture Collection) were cultured in a culture medium containing 10% (v/v) fetal calf serum (FCS) (manufactures by Sigma) to logarithmic phase. The cells were seeded in 96-well microtiter plate at a density of 5000 cells/well in 100 μL cell culture medium and incubated at 37° C. and 5% CO2 in a humidified incubator overnight. The test compounds of various concentrations were added in a well at 10 fold concentration in 1/10 volume of medium without FCS. After 6-48 hrs incubation at 37° C. in the CO2 incubator, 10 μL solution of the viable cell counting reagent, Cell counting Kit-8 (5 mmol/L WST-8, 0.2 mmol/L 1-Methoxy PMS, 150 mmol/L NaCl) (manufactured by Dojindo) was added to each well, and reacted for 1 to 4 hours in the CO2 incubator. After the incubation, an absorbance of formazan, generated by reduction of WST-8 was determined at 450 nm using a microplate reader.
The assay readout is correlated with the viable cell numbers. Small values correspond to high inhibition and larger values to low inhibition of the cell growth. To determine IC50 values (i.e. the concentration inhibiting the cell growth by 50%) of the compound of formula I, several assays were made with a range of concentrations chosen empirically to give low, high and intermediate inhibition of the growth and determined using the curve fitting software.
IC50 values can be converted logarithmically to pIC50 values (−log IC50), in which higher values indicate exponentially greater potency. The IC50 value is not an absolute value but depends on experimental conditions e.g. concentrations employed.
On the technique in general: Tetrazolium dyes change colour on reduction, which living cells bring about.

The subject of data set [2] is tumor cells in which both WNT and KRas signaling pathways are activated. Briefly: Selective lethality to tumor cells with activated WNT and KRas signaling. Type of data set: cell-based.
A further data set has as its target T1, Hexokinase-II (HK-II) (Homo sapiens, UniProt P52789).
T1 sequence (P52789 1-917): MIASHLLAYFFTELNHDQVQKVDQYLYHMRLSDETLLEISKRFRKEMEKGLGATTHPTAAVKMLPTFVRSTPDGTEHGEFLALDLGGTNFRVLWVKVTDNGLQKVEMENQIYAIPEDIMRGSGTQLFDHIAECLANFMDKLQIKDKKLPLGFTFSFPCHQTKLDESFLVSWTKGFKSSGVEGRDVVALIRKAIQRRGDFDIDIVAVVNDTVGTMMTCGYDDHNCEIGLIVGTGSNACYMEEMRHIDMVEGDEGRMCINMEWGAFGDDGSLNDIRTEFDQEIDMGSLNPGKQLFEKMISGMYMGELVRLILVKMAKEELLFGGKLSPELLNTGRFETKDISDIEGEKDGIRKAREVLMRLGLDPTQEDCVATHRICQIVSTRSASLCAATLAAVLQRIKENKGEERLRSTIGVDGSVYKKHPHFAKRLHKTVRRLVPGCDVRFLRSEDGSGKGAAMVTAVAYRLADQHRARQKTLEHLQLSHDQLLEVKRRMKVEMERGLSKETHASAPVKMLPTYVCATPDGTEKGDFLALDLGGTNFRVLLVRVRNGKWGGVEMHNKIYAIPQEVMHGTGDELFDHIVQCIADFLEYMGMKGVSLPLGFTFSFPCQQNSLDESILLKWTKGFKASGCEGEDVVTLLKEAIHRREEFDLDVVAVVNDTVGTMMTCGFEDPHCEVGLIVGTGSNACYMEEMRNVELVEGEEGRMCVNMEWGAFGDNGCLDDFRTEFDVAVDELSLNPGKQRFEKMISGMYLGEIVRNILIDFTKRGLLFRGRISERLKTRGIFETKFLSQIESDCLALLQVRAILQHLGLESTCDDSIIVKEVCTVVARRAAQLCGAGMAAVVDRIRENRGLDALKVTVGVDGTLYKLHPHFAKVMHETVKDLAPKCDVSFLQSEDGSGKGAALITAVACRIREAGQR
Briefly: Hexokinase 2 inhibition (Transcreener ADP2 assay). Conditions: read-out: HK-II Inhibition ADP-FP (% inhibition at 20 μM). Format: biochemical. The text has this:
It is well known that tumor cells mainly rely on glycolysis for energy generation and intermediary metabolism, a phenomenon known as the Warburg effect. Hexokinase-II (HK-II), a key enzyme of glycolysis, catalyzes the first step in the conversion of glucose to glucose-6-phosphate. HK-II is highly expressed in many types of tumors and its expression is correlated with glucose uptake, tumor aggressiveness, and poor survival prognosis. Inhibition of HK-II activity attenuates tumor cell growth and induces apoptosis.
The test compounds were added to a typical reaction mixture of HK-II, and the produced ADP concentrations were determined using Transcreener® ADP^2 FI Assay (BellBrook Labs, Madison, Wis., USA).

pIC50: −log10 of the molar value.

Consider `CCC[C@@H]1C/C(=N/NS(=O)(=O)c2ccc(C)cc2)C[C@@]2(O1)C(=O)Nc1ccccc12` (stereo in doubt), for which the melting point was in the range of 197 to 199 °C.

`CCC[C@@H]1CC(=O)C[C@@]2(O1)C(=O)Nc1ccccc12` [Compound 3aa, (2′S,6′R)-6′-Propyl-5′,6′-dihydrospiro[indoline-3,2′-pyran)-2,4′(3′H)-dione] showed a melting point of 118 to 120 °C. Besides, the negative-log IC50 (pIC50) in data set [1] (sample of 99% ee) was 3.89. The compound also gave a pIC50 in data set [1] (sample with no ee given) of 3.90.

The compound `CCC[C@@H]1CC(=O)C[C@@]2(O1)C(=O)Nc1cccc(Cl)c12` [Compound 3ab, (2′S,6′R)-4-chloro-6′-propyl-5′,6′-dihydrospiro[indoline-3,2′-pyran]-2,4′(3′H)-dione] showed a pIC50 in data set [1] (sample with no ee given) of 4.82. Also, in data set [2], the “activity selectively lethal to tumor cells in which both WNT and KRas signaling pathways are activated” value (shortened to “activity selectively lethal”) is on record as “selectively lethal”.

Consider `CCC[C@@H]1CC(=O)C[C@@]2(O1)C(=O)Nc1cccc(Br)c12` [Compound 3ac, (2′S,6′R)-4-bromo-6′-propyl-5′,6-dihydrospiro[indoline-3,2′-pyran]-2,4′(3′H)-dione], for which the pIC50 in data set [1] (sample of 82% ee) is 4.80. For the same compound, the “activity selectively lethal” value in data set [2] was “selectively lethal”.

`CCC[C@@H]1CC(=O)C[C@@]2(O1)C(=O)Nc1ccc(Br)cc12` [Compound 3ae, (2′S,6′R)-5-bromo-6′-propyl-5′,6′-dihydrospiro[indoline-3,2′-pyran]-2,4′(3′H)-dione]: the pIC50 in data set [1] (sample with no ee given) is 4.70. For the same compound, the “activity selectively lethal” value in data set [2] is on record as “selectively lethal”.

The compound `CCC[C@@H]1CC(=O)C[C@@]2(O1)C(=O)Nc1cc(Cl)ccc12` [Compound 3af, (2′S,6′R)-6-chloro-6′-propyl-5′,6′-dihydrospiro[indoline-3,2′-pyran]-2,4′(3′H)-dione] showed a pIC50 in data set [1] (sample with no ee given) of 4.68. Besides, in data set [2], the “activity selectively lethal” value is recorded as “selectively lethal”.

With `O=C1C[C@@H](CCN2C(=O)c3ccccc3C2=O)O[C@]2(C1)C(=O)Nc1ccccc12` [Compound 3ga, (2′S,6′R)-6′-(2-(1,3-dioxoisoindolin-2-yl)ethyl)-5′,6′-dihydrospiro[indoline-3,2′-pyran]-2,4′(3′H)-dione], the melting point lay within 199 to 201 °C. Also, the pIC50 in data set [1] (sample of 91% ee) was 3.95.

As to `O=C1C[C@H](c2ccccc2)O[C@@]2(C1)C(=O)Nc1ccccc12` [Compound 3ja, (2′R,6′R)-6′-phenyl-5′,6′-dihydrospiro[indoline-3,2′-pyran]-2,4′(3′H)-dione], the inhibition at 20 µM on Hexokinase-II (HK-II) was 33.8%. Further, in data set [2], the “activity selectively lethal” value was “selectively lethal”.

Take `CCC[C@@H]1C[C@@H](O)C[C@@]2(O1)C(=O)Nc1ccccc12` [Compound 5, (2′S,4′R,6′R)-4′-hydroxy-6′-propyl-3′,4′,5′,6′-tetrahydrospiro[indoline-3,2′-pyran]-2-one]: the melting point was in the range of 169 to 171 °C. Besides, the negative logarithm of the IC50 (pIC50) in data set [1] (sample of 92% ee) is less than 3.61. In data set [1] (sample with no ee given), this compound showed a pIC50 of less than 3.61.

With `CCC[C@@H]1C[C@@H](NCc2ccccc2)C[C@@]2(O1)C(=O)Nc1ccccc12` [Compound 6, (2′S,4′R,6′R)-4′-(benzylamino)-6-propyl-3′,4′,5′,6-tetrahydrospiro[indoline-3,2′-pyran]-2-one], the inhibition at 20 µM on Hexokinase-II (HK-II) stood at 37.7%.

The compound `C=CC[C@@]1(O)C[C@@H](CCC)O[C@]2(C1)C(=O)Nc1ccccc12` [Compound 7, (2′S,4′R,6′R)-4′-allyl-4′-hydroxy-6-propyl-3′,4′,5′,6-tetrahydrospiro[indoline-3,2′-pyran]-2-one] showed a melting point of 189 to 191 °C. The pIC50 in data set [1] (sample of 87% ee) is less than 3.67. Besides, the pIC50 in data set [1] (sample with no ee given) was less than 3.67.
